Reference: ChEMBL document CHEMBL1155722, “Biological and mechanistic activities of xanthorrizol and 4-(1',5'-dimethylhex-4'-enyl)-2-methylphenol isolated from Iostephane heterophylla” (2001)
In brackets after ≈: the same amount, converted by molar mass.

Experiments:
[1] = Ratio of LD50 for CD1 mouse to ED50 for Staphylococcus aureus infected in single subcutaneously dosed CD1 moue
Staphylococcus aureus [2] = experiment: Antimicrobial activity against Staphylococcus aureus infected in CD1 mouse administered single oral dose after 7 days; format: functional; conditions: 168 h
Staphylococcus aureus [3] = experiment: Antimicrobial activity against Staphylococcus aureus infected in CD1 mouse administered subcutaneously after 30 mins infection measured after 7 days; format: functional; conditions: sc
Staphylococcus aureus [4] = experiment: Antimicrobial activity against methicillin-sensitive Staphylococcus aureus 375 after 18 hrs by microbroth dilution method; format: functional; conditions: Staphylococcus aureus, 375, 18 h
Escherichia coli [5] = experiment: Inhibition of DNA synthesis in Escherichia coli assessed as incorporation of [3H]thymidine at 32 ug/mL by LKB Betaplate scintillation counter relative to control; format: functional; design: scale not given: the % may be the effect or the level left
Escherichia coli [6] = experiment: Inhibition of DNA synthesis in Escherichia coli assessed as incorporation of [3H]thymidine at 8 ug/mL by LKB Betaplate scintillation counter relative to control; format: functional; design: scale not given: the % may be the effect or the level left
Escherichia coli [7] = experiment: Inhibition of RNA synthesis in Escherichia coli assessed as incorporation of [3H]uridine at 64 ug/mL by LKB Betaplate scintillation counter relative to control; format: functional; design: scale not given: the % may be the effect or the level left
Enterococcus faecium [8] = experiment: Antimicrobial activity against Enterococcus faecium 436 after 18 hrs by microbroth dilution method; format: functional; conditions: Enterococcus faecium, 436, 18 h
Escherichia coli [9] = experiment: Inhibition of RNA synthesis in Escherichia coli assessed as incorporation of [3H]uridine at 16 ug/mL by LKB Betaplate scintillation counter relative to control; format: functional; design: scale not given: the % may be the effect or the level left
Staphylococcus aureus [10] = experiment: Antimicrobial activity against methicillin-resistant Staphylococcus aureus 310 after 18 hrs by microbroth dilution method; format: functional; conditions: Staphylococcus aureus, 310, 18 h
Escherichia coli [11] = experiment: Antimicrobial activity against Escherichia coli 389 after 18 hrs by microbroth dilution method; format: functional; conditions: Escherichia coli, 389, 18 h
Bacillus subtilis = experiment: Antimicrobial activity against Bacillus subtilis 327 after 18 hrs by microbroth dilution method; format: functional; conditions: Bacillus subtilis, 327, 18 h
Escherichia coli [12] = experiment: Inhibition of protein synthesis in Escherichia coli assessed as incorporation of [3H]amino acid at 128 ug/mL by LKB Betaplate scintillation counter relative to control; format: functional; design: scale not given: the % may be the effect or the level left
Escherichia coli [13] = experiment: Inhibition of protein synthesis in Escherichia coli assessed as incorporation of [3H]amino acid at 16 ug/mL by LKB Betaplate scintillation counter relative to control; format: functional; design: scale not given: the % may be the effect or the level left
Escherichia coli [14] = experiment: Inhibition of RNA synthesis in Escherichia coli assessed as incorporation of [3H]uridine at 128 ug/mL by LKB Betaplate scintillation counter relative to control; format: functional; design: scale not given: the % may be the effect or the level left
Escherichia coli [15] = experiment: Inhibition of DNA synthesis in Escherichia coli assessed as incorporation of [3H]thymidine at 64 ug/mL by LKB Betaplate scintillation counter relative to control; format: functional; design: scale not given: the % may be the effect or the level left
Escherichia coli [16] = experiment: Inhibition of DNA synthesis in Escherichia coli assessed as incorporation of [3H]thymidine at 16 ug/mL by LKB Betaplate scintillation counter relative to control; format: functional; design: scale not given: the % may be the effect or the level left
Klebsiella pneumoniae = experiment: Antimicrobial activity against Klebsiella pneumoniae 425 after 18 hrs by microbroth dilution method; format: functional; conditions: Klebsiella pneumoniae, 425, 18 h
Pseudomonas aeruginosa = experiment: Antimicrobial activity against Pseudomonas aeruginosa 339 after 18 hrs by microbroth dilution method; format: functional; conditions: Pseudomonas aeruginosa, 339, 18 h
Escherichia coli [17] = experiment: Inhibition of protein synthesis in Escherichia coli assessed as incorporation of [3H]amino acid at 32 ug/mL by LKB Betaplate scintillation counter relative to control; format: functional; design: scale not given: the % may be the effect or the level left
Enterococcus faecium [18] = experiment: Antimicrobial activity against vancomycin-resistant Enterococcus faecium 379 after 18 hrs by microbroth dilution method; format: functional; conditions: Enterococcus faecium, 379, 18 h
Escherichia coli [19] = experiment: Inhibition of protein synthesis in Escherichia coli assessed as incorporation of [3H]amino acid at 64 ug/mL by LKB Betaplate scintillation counter relative to control; format: functional; design: scale not given: the % may be the effect or the level left
Escherichia coli [20] = experiment: Antimicrobial activity against Escherichia coli ATCC 25922 after 18 hrs by microbroth dilution method; format: functional; conditions: ATCC 25922, 18 h
Escherichia coli [21] = experiment: Inhibition of RNA synthesis in Escherichia coli assessed as incorporation of [3H]uridine at 32 ug/mL by LKB Betaplate scintillation counter relative to control; format: functional; design: scale not given: the % may be the effect or the level left
Candida albicans = experiment: Antimicrobial activity against Candida albicans 54 after 18 hrs by microbroth dilution method; format: functional; conditions: Candida albicans, 54, 18 h
Escherichia coli [22] = experiment: Inhibition of DNA synthesis in Escherichia coli assessed as incorporation of [3H]thymidine at 128 ug/mL by LKB Betaplate scintillation counter relative to control; format: functional; design: scale not given: the % may be the effect or the level left
Escherichia coli [23] = experiment: Inhibition of protein synthesis in Escherichia coli assessed as incorporation of [3H]amino acid at 8 ug/mL by LKB Betaplate scintillation counter relative to control; format: functional; design: scale not given: the % may be the effect or the level left
Escherichia coli [24] = experiment: Antimicrobial activity against Escherichia coli 442 after 18 hrs by microbroth dilution method; format: functional; conditions: Escherichia coli, 442, 18 h
Escherichia coli [25] = experiment: Inhibition of RNA synthesis in Escherichia coli assessed as incorporation of [3H]uridine at 8 ug/mL by LKB Betaplate scintillation counter relative to control; format: functional; design: scale not given: the % may be the effect or the level left
Staphylococcus aureus [26] = experiment: Antimicrobial activity against Staphylococcus aureus ATCC 25923 after 18 hrs by microbroth dilution method; format: functional; conditions: ATCC 25923, 18 h
Escherichia coli [27] = experiment: Inhibition of RNA synthesis in Escherichia coli assessed as incorporation of [3H]uridine at 0.25 ug/mL by LKB Betaplate scintillation counter relative to control; format: functional; design: scale not given: the % may be the effect or the level left
Escherichia coli [28] = experiment: Inhibition of protein synthesis in Escherichia coli assessed as incorporation of [3H]amino acid at 0.25 ug/mL by LKB Betaplate scintillation counter relative to control; format: functional; design: scale not given: the % may be the effect or the level left
Escherichia coli [29] = experiment: Inhibition of DNA synthesis in Escherichia coli assessed as incorporation of [3H]thymidine at 0.25 ug/mL by LKB Betaplate scintillation counter relative to control; format: functional; design: scale not given: the % may be the effect or the level left
Escherichia coli [30] = experiment: Inhibition of RNA synthesis in Escherichia coli assessed as incorporation of [3H]uridine at 25 ug/mL by LKB Betaplate scintillation counter relative to control; format: functional; design: scale not given: the % may be the effect or the level left
Escherichia coli [31] = experiment: Inhibition of DNA synthesis in Escherichia coli assessed as incorporation of [3H]thymidine at 25 ug/mL by LKB Betaplate scintillation counter relative to control; format: functional; design: scale not given: the % may be the effect or the level left
Escherichia coli [32] = experiment: Inhibition of protein synthesis in Escherichia coli assessed as incorporation of [3H]amino acid at 25 ug/mL by LKB Betaplate scintillation counter relative to control; format: functional; design: scale not given: the % may be the effect or the level left
Staphylococcus aureus [33] = experiment: Antimicrobial activity against Staphylococcus aureus after 18 hrs by micro-broth dilution method; format: functional

CN[C@H](CC(C)C)C(=O)N[C@H]1C(=O)N[C@@H](CC(N)=O)C(=O)N[C@H]2C(=O)N[C@H]3C(=O)N[C@H](C(=O)N[C@H](C(=O)O)c4cc(O)cc(O)c4-c4cc3ccc4O)[C@H](O)c3ccc(c(Cl)c3)Oc3cc2cc(c3O[C@@H]2O[C@H](CO)[C@@H](O)[C@H](O)[C@H]2O[C@H]2C[C@](C)(N)[C@H](O)[C@H](C)O2)Oc2ccc(cc2Cl)[C@H]1O [VANCOMYCIN]
Ratio LD50/ED50 [1]: >1000 | ED50 (Staphylococcus aureus [2]): 230 mg/kg | ED50 (Staphylococcus aureus [3]): 1 mg/kg

CC(C)=CCC[C@@H](C)c1ccc(C)c(O)c1 [XANTHORRIZOL]
MIC (Staphylococcus aureus [4]): 16 µg/mL (≈ 73.3 µM) | Activity (Escherichia coli [5]): 35.75% | Activity (Escherichia coli [6]): 95.33% | Activity (Escherichia coli [7]): 8.72% | MIC (Enterococcus faecium [8]): 16 µg/mL (≈ 73.3 µM) | Activity (Escherichia coli [9]): 91.13% | MIC (Staphylococcus aureus [10]): 32 µg/mL (≈ 147 µM) | MIC (Escherichia coli [11]): 32 µg/mL (≈ 147 µM) | MIC (Bacillus subtilis): 16 µg/mL (≈ 73.3 µM) | Activity (Escherichia coli [12]): 17.12% | Activity (Escherichia coli [13]): 96.92% | Activity (Escherichia coli [14]): 1.91% | Activity (Escherichia coli [15]): 7.03% | Activity (Escherichia coli [16]): 99.98% | MIC (Klebsiella pneumoniae): 32 µg/mL (≈ 147 µM) | MIC (Pseudomonas aeruginosa): > 128 µg/mL | Activity (Escherichia coli [17]): 33.57% | MIC (Enterococcus faecium [18]): 16 µg/mL (≈ 73.3 µM) | Activity (Escherichia coli [19]): 23.39% | ED50 (Staphylococcus aureus [3]): > 32 mg/kg | MIC (Escherichia coli [20]): > 128 µg/mL | Activity (Escherichia coli [21]): 48.56% | MIC (Candida albicans): 128 µg/mL (≈ 586 µM) | Activity (Escherichia coli [22]): 1.52% | Activity (Escherichia coli [23]): 102.1% | MIC (Escherichia coli [24]): > 128 µg/mL | Activity (Escherichia coli [25]): 96.87% | MIC (Staphylococcus aureus [26]): 16 µg/mL (≈ 73.3 µM)

CO[C@H]1/C=C/O[C@@]2(C)Oc3c(C)c(O)c4c(O)c(c(/C=N/N5CCN(C)CC5)c(O)c4c3C2=O)NC(=O)/C(C)=C\C=C\[C@H](C)[C@H](O)[C@@H](C)[C@@H](O)[C@@H](C)[C@H](OC(C)=O)[C@@H]1C [RIFAMPIN]
Activity (Escherichia coli [27]): 1.17% | Activity (Escherichia coli [28]): 27.82% | Activity (Escherichia coli [29]): 89.56%

O=C(N[C@H](CO)[C@H](O)c1ccc([N+](=O)[O-])cc1)C(Cl)Cl [CHLORAMPHENICOL]
Activity (Escherichia coli [30]): 85.76% | Activity (Escherichia coli [31]): 82.98% | Activity (Escherichia coli [32]): 18.96%

CC1(C)S[C@@H]2[C@H](NC(=O)Cc3ccccc3)C(=O)N2[C@H]1C(=O)O [PENICILLIN G]
MIC (Staphylococcus aureus [4]): 0.06 µg/mL (≈ 0.179 µM) | MIC (Enterococcus faecium [8]): 32 µg/mL (≈ 95.7 µM) | MIC (Staphylococcus aureus [10]): 64 µg/mL (≈ 191 µM) | MIC (Escherichia coli [11]): 2 µg/mL (≈ 5.98 µM) | MIC (Bacillus subtilis): 32 µg/mL (≈ 95.7 µM) | MIC (Klebsiella pneumoniae): 128 µg/mL (≈ 383 µM) | MIC (Pseudomonas aeruginosa): > 128 µg/mL | MIC (Enterococcus faecium [18]): 32 µg/mL (≈ 95.7 µM) | MIC (Escherichia coli [20]): 128 µg/mL (≈ 383 µM) | MIC (Candida albicans): > 128 µg/mL | MIC (Staphylococcus aureus [26]): 0.06 µg/mL (≈ 0.179 µM)

C[C@@]12C[C@@]34CC[C@H]5[C@@](C)(CCC[C@]5(C)C(=O)O)[C@@H]3C[C@H]1[C@H]2C4
MIC (Staphylococcus aureus [33]): 128 µg/mL (≈ 423 µM)

CC(C)=CCC[C@@H](C)c1ccc(O)c(C)c1
MIC (Staphylococcus aureus [4]): 16 µg/mL (≈ 73.3 µM) | Activity (Escherichia coli [5]): 48.24% | Activity (Escherichia coli [6]): 75.57% | Activity (Escherichia coli [7]): 39.08% | MIC (Enterococcus faecium [8]): 16 µg/mL (≈ 73.3 µM) | Activity (Escherichia coli [9]): 60.35% | MIC (Staphylococcus aureus [10]): 32 µg/mL (≈ 147 µM) | MIC (Escherichia coli [11]): 32 µg/mL (≈ 147 µM) | MIC (Bacillus subtilis): 16 µg/mL (≈ 73.3 µM) | Activity (Escherichia coli [12]): 25.34% | Activity (Escherichia coli [13]): 52.28% | Activity (Escherichia coli [14]): 34.04% | Activity (Escherichia coli [15]): 37.82% | Activity (Escherichia coli [16]): 63.06% | MIC (Klebsiella pneumoniae): 32 µg/mL (≈ 147 µM) | MIC (Pseudomonas aeruginosa): > 128 µg/mL | Activity (Escherichia coli [17]): 44.2% | MIC (Enterococcus faecium [18]): 16 µg/mL (≈ 73.3 µM) | Activity (Escherichia coli [19]): 39.06% | MIC (Escherichia coli [20]): > 128 µg/mL | Activity (Escherichia coli [21]): 50.02% | MIC (Candida albicans): 128 µg/mL (≈ 586 µM) | Activity (Escherichia coli [22]): 30.71% | Activity (Escherichia coli [23]): 68% | MIC (Escherichia coli [24]): > 128 µg/mL | Activity (Escherichia coli [25]): 66.73% | MIC (Staphylococcus aureus [26]): 16 µg/mL (≈ 73.3 µM)
